Experimental data taken from US20240207208A1, “Treatments for Diabetes Mellitus and Obesity” (The Board of Trustees of the Leland Stanford Junior …, priority 2011, published 2024).

Assays:
[1] = Oral glucose tolerance test (OGTT) after local RTX treatment of the intestine; format: in vivo, Sprague-Dawley rats
Excerpt: (§1) Adult male Sprague-Dawley rats (Harlan, Indianapolis, IN) weighing 280-350 g were used in all the experiments. The animal protocol was approved by the Institutional Animal Care and Use Committee of the Stanford University Medical Center.
(§2) Rats were randomly divided into six groups: 1, vehicle solution treated on the surface of duodenum (n=4); 2, RTX solution treated on the surface of duodenum (n=4); 3, vehicle solution treated on the surface of ileum (1 rat) or colon (1 rat) (n=2); 4, RTX solution treated on the surface of ileum (2 rats) or colon (1 rat) (n=3); 5. Vehicle solution infuse into duodenum (n=2); 6. RTX solution infuse into duodenum (n=3).
Rats were fasted overnight prior to surgery having free access to water. Under 2% isoflurane-induced anesthesia, the abdomen was opened through a midline incision for the duodenum treatment and lower line for ileum or colon treatment. These intestines were exposed and protected with warm saline sponges around the intestine. Procedure 1: RTX application on the surface of intestine: The cotton applicator with RTX((0.32 mM) or vehicle solution were gently applied topically to the outer surface of entire duodenum (about 10 cm from the beginning of the duodenum) for 5 min. Same treatment in ileum and colon groups were applied on about 10 cm long of distal ileum and colon. Procedure 2: RTX or vehicle infused into duodenum: Two atraumatic clamps used to block on beginning and distal of duodenum. 0.8 ml of 0.32 mM RTX or vehicle was infused into duodenum through a glass syringe with a 27 gauge needle. After 30 min the RTX or vehicle solution were withdrawn and the clamps were released. After treatment, the abdominal incisions were closed. […]
Post RTX treatment 1st, 3rd and 7th week all the rats were performed the OGTT. After 17 hours overnight fasting, blood glucose was measured in conscious rats by tail-stick, using a glucose meter (Bayer Healthcare LLC, Mishawaka, IN). OGTT was measured before (baseline) and each 15 minutes for 2 hours after oral gavage glucose (1 g/kg body weight). […]

[2] = Body weight change monitoring after local RTX treatment of the intestine; format: in vivo, Sprague-Dawley rats; parameters: body weight: unit not given here; settings: for body weight: mean±s.e.
Excerpt: as §1, §2
Rats were fasted overnight prior to surgery having free access to water. Under 2% isoflurane-induced anesthesia, the abdomen was opened through a midline incision for the duodenum treatment and lower line for ileum or colon treatment. These intestines were exposed and protected with warm saline sponges around the intestine. Procedure 1: RTX application on the surface of intestine: The cotton applicator with RTX((0.32 mM) or vehicle solution were gently applied topically to the outer surface of entire duodenum (about 10 cm from the beginning of the duodenum) for 5 min. Same treatment in ileum and colon groups were applied on about 10 cm long of distal ileum and colon. Procedure 2: RTX or vehicle infused into duodenum: Two atraumatic clamps used to block on beginning and distal of duodenum. 0.8 ml of 0.32 mM RTX or vehicle was infused into duodenum through a glass syringe with a 27 gauge needle. After 30 min the RTX or vehicle solution were withdrawn and the clamps were released. After treatment, the abdominal incisions were closed.
RTX solution: RTX stock solution: 1 mg RTX+10% ethanol+10% Tween-80 in saline to make 1 μg RTX/μl in stock solution. RTX work solution (0.32 mM): stock RTX solution (0.2 ml)+Saline (0.8 ml); Vehicle (like stock solution without RTX)
The body weight of rats was measured before RTX treatment and each blood glucose testing day.
Data are presented as means±s.e. Data were compared using Student's t-test. Differences were considered significant at <0.05.

Q: For `C=C(C)[C@]12C[C@@H](C)[C@@]34O[C@](Cc5ccccc5)(O[C@@H]1[C@@H]3C=C(COC(=O)Cc1ccc(O)c(OC)c1)C[C@]1(O)C(=O)C(C)=C[C@@H]41)O2` [RTX, Resiniferatoxin], which “glucose tolerance compared with vehicle group (OGTT)” value ([1]; 0.8 ml of 0.32 mM RTX infused into duodenum, 30 min, 2 hours testing time, all testing days) is on record?
A: not significantly different

Q: And the “glucose tolerance compared with vehicle group (OGTT)” value ([1]; RTX 0.32 mM topically on the surface of duodenum, 5 min, 30 and 45-minute peak levels, 1st, 3rd and 7th week post treatment, P<0.05)?
A: better glucose tolerance

Q: And the “glucose tolerance compared with vehicle group (OGTT)” value ([1]; RTX 0.32 mM topically on the surface of ileum or colon, 2 hours testing time, all testing days)?
A: not significantly different

Q: And the body weight ([2]; RTX infused into duodenum, 1st week post treatment)?
A: 102.4±3.0

Q: What about the body weight ([2]; RTX infused into duodenum, 3rd week post treatment) of the same compound?
A: 123.1±1.6

Q: And the body weight ([2]; RTX infused into duodenum, 7th week post treatment)?
A: 136.3±2.5

Q: What about the “body weight compared with vehicle group” value ([2]; RTX infused into duodenum, all measurement days) of the same compound?
A: not significantly different

Q: And the body weight ([2]; RTX on the surface of duodenum, 1st week post treatment, P<0.05 vs vehicle and vs RTX infusion)?
A: 92.0±1.0

Q: And the “body weight compared with vehicle group” value ([2]; RTX on the surface of duodenum, 3rd and 7th week post treatment)?
A: not significantly different

Q: And the body weight ([2]; RTX on the surface of duodenum, 3rd week post treatment, P<0.05 vs RTX infusion)?
A: 110.5±2.6

Q: What about the body weight ([2]; RTX on the surface of duodenum, 7th week post treatment, P<0.05 vs RTX infusion) of the same compound?
A: 118.9±0.9

Q: What about the “body weight compared with vehicle group” value ([2]; RTX on the surface of ileum or colon, all measurement days) of the same compound?
A: not significantly different
